Assay results reported in patent US20250360105A1, “USE OF ERGOTHIONEINE FOR ANTI-AGING” (NANJING NUTRABUILDING BIO-TECH CO., LTD., priority 2022, published 2025).

Columns and labels:
progerin = experiment: Taqman quantitative real-time PCR of progerin mRNA in coronary artery endothelial cells of aging mice; type: in vivo; settings: 56-week-old mice treated with EGT every day, compared to without EGT treated; FIG. 1
Protocol: (§1) 18 […]/6 male mice aged about 8 weeks, were randomly assigned to three study groups (GA, GB, GC). The total experimental time was 56 weeks, and the control group was consisted of 12 animals, and all of the animals were maintained in an animal facility room under controlled environmental conditions (22±1° C., 12 h-light/12 h dark cycle, free access to food and water). All procedures were carried out in accordance with institutional policies on experimental animal handling. Treatment details of the individual study groups were: Group A (GA): euthanized at the age of 10 weeks; Group B (GB): euthanized at the age of 56 weeks without EGT treated; Group C (GC): euthanized at the age of 56 weeks with EGT treated every day. For all the euthanized mice, formalin-fixed paraffin embedded 3 μm sections were prepared from the tissues of coronary artery, and were snap-frozen and stored at -80° C. Taqman quantitative real-time PCR was used for detection of progerin mRNA. Messenger RNA was extracted using RNeasy Mini Kit Plus (Qiagen, Valencia, CA). The Taqman probe was as described by Rodriguez et al. (Rodriguez, S., et al., Increased expression of the Hutchinson Gilford progeria syndrome truncated lamin A transcript during cell aging. 2009. 17(7): p. 928-937). The forward primer was [NT] ID NO: 1), and the reverse primer was [NT] ID NO: 2).

lamin A = experiment: Taqman quantitative real-time PCR of lamin A mRNA in coronary artery endothelial cells of aging mice; type: in vivo; settings: 56-week-old mice treated with EGT every day, compared to without EGT treated; FIG. 1
Protocol: as §1

lamin C = experiment: Taqman quantitative real-time PCR of lamin C mRNA in coronary artery endothelial cells of aging mice; type: in vivo; settings: 56-week-old mice treated with EGT every day, compared to without EGT treated; FIG. 1
[1] = test system: pro-inflammatory cytokines IL-1α, IL-1β, IL-6, and TNF-α; experiment: Quantification of pro-inflammatory cytokines in serum of aging mice using ELISA Array kit; type: in vivo; settings: serum of 56-week-old mice, EGT compared to without EGT treatment, FIG. 2
Protocol: 18 […]/6 male mice aged about 8 weeks, were randomly assigned to three study groups (GA, GB, GC). The total experimental time was 56 weeks, and the control group was consisted of 12 animals, and all of the animals were maintained in an animal facility room under controlled environmental conditions (22±1° C., 12 h-light/12 h dark cycle, free access to food and water). All procedures were carried out in accordance with institutional policies on experimental animal handling. Treatment details of the individual study groups were: Group A (GA): euthanized at the age of 10 weeks; Group B (GB): euthanized at the age of 56 weeks without EGT treated; Group C (GC): euthanized at the age of 56 weeks with EGT treated every day.

[2] = test system: vascular and intracellular adhesion molecules in endothelial cells; settings: Anticoli et al. 2010; cited from earlier work

C[N+](C)(C)[C@@H](Cc1c[nH]c(=S)[nH]1)C(=O)[O-] [EGT, Ergothioneine]
mRNA expression of progerin in coronary artery endothelial cells (progerin): obvious decrease
mRNA of lamin A in coronary artery endothelial cells (lamin A): decrease
mRNA of lamin C in coronary artery endothelial cells (lamin C): decrease
pro-inflammatory cytokines (IL-1α, IL-1β, IL-6, TNF-α) [1]: obvious decrease
IL-1β-induced expression of vascular and intracellular adhesion molecules [2]: inhibit
